Measurements taken from publication PMC4546427, “Stereoselective Regulation of P-gp Activity by Clausenamide Enantiomers in Caco-2, KB/KBv and Brain Microvessel Endothelial Cells” (PLoS ONE, 2015).
Values joined by “and” are separate entries in the source; they are usually repeats but may differ in a detail not shown here. Equal values may be shown once.

Tests used:
P-gp [1] = molecular target: T1, P-gp (Homo sapiens, UniProt P08183); assay: Rh123 accumulation in Caco-2 cells; type: cell-based; details: for Percentage of rhodamine 123 accumulation relative to vehicle treatment: positive = increase; for More Rh123 accumulation than verapamil alone: verapamil 200 μmol/L plus CLA 5 μmol/L
T1 construct: three cells expressing P-gp, Caco-2, KBv and rat brain microvessel endothelial cells (RBMEC); endogenous in cells; host or cells: Caco-2
Description: (§1) Caco-2 cells were seeded onto 6-well plates at a density of 5 × 10^5 cells/well and maintained in MEM supplemented with 10% (v/v) FBS, 1% (v/v) NEAA, 100 units/mL penicillin and 100 μg/mL streptomycin sulphate in a humidified 37°C incubator with 5% CO2. Upon 80%–90% confluence, the cells were provided new complete medium (2 mL/well) and exposed, to vehicle, (−)CLA (1 or 5 μmol/L), (+)CLA (1 or 5 μmol/L), verapamil (200 μmol/L) or individual enantiomer (1 or 5 μmol/L) plus verapamil (200 μmol/L). Then, Rh123 (5 μmol/L) was added to all the wells. After incubation at 37°C and 5% CO2 for 2 h which was designed by the pharmacokinetic parameters of CLA enantiomers, the cells were washed 3 times with 2 mL of ice-cold PBS (pH 7.4), lysed in 400 μL of lysis buffer [50 mmol/L Tris-HCl (pH 8.0), 150 mmol/L NaCl, 0.1% SDS, 100 μg/mL PMSF, 1 μg/mL aprotinin and 1% Nonidet P-40], and then were placed on ice for 40 min. The plates were wrapped in tinfoil. The fluorescence of Rh123 in each well was detected by Spectra Max Gemini XS plate reader (Molecular Devices Corp., Sunnyvale, CA, USA) with excitation and emission wavelengths of 488 nm and 530 nm, respectively. Meanwhile, 10 μL of cell lysates were collected from each well to measure protein concentration using Lowry’s method. Intracellular Rh123 accumulation was normalized by protein concentration (mg/mL) and then was calculated by a standard curve of Rh123 at three concentrations (2.5–10 μmol/L), in parallel with the lysis experiment.

P-gp [2] = molecular target: T1, P-gp; assay: Rh123 accumulation in KBv cells; type: cell-based; details: for Percentage of rhodamine 123 accumulation relative to vehicle treatment: positive = increase; for Effect on P-gp efflux activity when combined with verapamil (in words): higher concentration CLA 10 μmol/L plus verapamil 200 μmol/L
Description: KB or its vinblastine-resistance derivative KBv cells[19] were maintained on 6-well plates (5 × 10^5 cells/well) in […] medium with 10% FBS, 100 units/mL penicillin and 100 μg/mL streptomycin sulphate at 37°C with 95% air and 5% CO2. After reaching 80%–90% confluence, the two cells were treated with the following agents, respectively: vehicle; (−)CLA (5 or 10 μmol/L); (+)CLA (5 or 10 μmol/L). Additionally, the KBv cells were treated with verapamil (200 μmol/L); or individual enantiomer (5 or 10 μmol/L) plus verapamil (200 μmol/L). Rh123 (5 μmol/L) were finally added to these wells. Subsequently, cell incubation, solubilisation and Rh123 accumulation were performed by using the same method for Caco-2 cells.

P-gp [3] = assay: P-gp expression in KB cells: Western blots; type: cell-based, Human; details: 5 μmol/L, 24 h, normalized to GAPDH
Description: The sensitive, non-induced KB cells on 6-well plates were grown to 80%–90% confluence and incubated with the following agents for 24 h at 37°C and 5% CO2: vehicle, (−)CLA (1 or 5 μmol/L), (+)CLA (1 or 5 μmol/L), or verapamil (100 μmol/L). The cells were washed 3 times with ice-cold PBS (pH 7.4) and were lysed with 80 μL of lysis buffer described above. Lysates were frozen with liquid nitrogen, thawed in water at 37°C three times and centrifuged at 15,000 ×g for 10 min. The protein concentration of the supernatant was determined by Lowry’s method with bovine serum albumin as the standard. Proteins (48 μg) were separated by SDS-PAGE on a 10% separating gel and 4% stacking gel, and were transferred onto Immobilon-P membranes. The transferred proteins were treated with a blocking buffer (5% non-fat dried milk and 0.02% NP-40 in PBS) and then incubated with P-gp or GAPDH antibodies (at a 1:100 dilution) or HRP-conjugated secondary antibodies (1:1000 dilution) at 37°C for 1 h, respectively. The protein bands were visualized with enhanced chemiluminescence according to the manufacturer’s instructions. The density of the bands was quantified by scanning densitometry (LAS-3000 Imaging System, Fujifilm, Japan; and Kodak Digital Science 1D Analysis Software, Rochester, NY, USA) and was expressed as normalized values to GAPDH.

P-gp [4] = assay: Rh123 accumulation summarized over Caco-2, KBv and RBMECs; type: cell-based; details: mean of Caco-2, RBMEC, KBv
Description: as §1
The experimental programs in this part were approved by the Animal Care and Welfare Committee in our institute. Animals were treated in accordance with national/international guidelines. Primary cultures of brain microvessel endothelial cells were prepared from Sprague—Dawley rats (10–12 days old; Beijing Vital River Company, Beijing, China), as previously described by Qian et al.[21]. The gray matter of animals was taken out and minced into small pieces of approximately 1 mm^3 in ice-cold MEM medium, then dissociated by using 2 mg/mL collagenase containing DNase at a final concentration of 10.5 μg/ml on a shaker for 20 min at 37°C. The cells were pelleted by centrifugation(1000 rpm, 10 min, 4°C) and digested once again according to the above protocol. Then 20% dextran(Mr 40,000) was added to the cells for differential centrifugation at 2000 rpm for 10 min. The cells were re-suspended in complete MEM medium and passed through 74-μm stainless steel mesh. […] The P-gp expression in cultured cells was determined by Western blot analyses using a mouse monoclonal antibody raised against amino acids 1040–1280 of P-gp. […]

[5] = set-up: method as in PMID 12923804; details: rats; oral administration; n = 6; cited from earlier work
[6] = set-up: method as in PMID 23684935; details: rabbits; oral dose of 100 mg/kg; cited from earlier work
[7] = set-up: method as in PMID 18655159; details: cited from earlier work
[8] = high dose, CLA 5 μmol/L, Rh123 5 μmol/L, 2 h
[9] = low dose, CLA 1 μmol/L, Rh123 5 μmol/L, 2 h
[10] = high dose, CLA 10 μmol/L, Rh123 5 μmol/L
[11] = low dose, CLA 5 μmol/L, Rh123 5 μmol/L

T1 sequence (P08183 whole entry): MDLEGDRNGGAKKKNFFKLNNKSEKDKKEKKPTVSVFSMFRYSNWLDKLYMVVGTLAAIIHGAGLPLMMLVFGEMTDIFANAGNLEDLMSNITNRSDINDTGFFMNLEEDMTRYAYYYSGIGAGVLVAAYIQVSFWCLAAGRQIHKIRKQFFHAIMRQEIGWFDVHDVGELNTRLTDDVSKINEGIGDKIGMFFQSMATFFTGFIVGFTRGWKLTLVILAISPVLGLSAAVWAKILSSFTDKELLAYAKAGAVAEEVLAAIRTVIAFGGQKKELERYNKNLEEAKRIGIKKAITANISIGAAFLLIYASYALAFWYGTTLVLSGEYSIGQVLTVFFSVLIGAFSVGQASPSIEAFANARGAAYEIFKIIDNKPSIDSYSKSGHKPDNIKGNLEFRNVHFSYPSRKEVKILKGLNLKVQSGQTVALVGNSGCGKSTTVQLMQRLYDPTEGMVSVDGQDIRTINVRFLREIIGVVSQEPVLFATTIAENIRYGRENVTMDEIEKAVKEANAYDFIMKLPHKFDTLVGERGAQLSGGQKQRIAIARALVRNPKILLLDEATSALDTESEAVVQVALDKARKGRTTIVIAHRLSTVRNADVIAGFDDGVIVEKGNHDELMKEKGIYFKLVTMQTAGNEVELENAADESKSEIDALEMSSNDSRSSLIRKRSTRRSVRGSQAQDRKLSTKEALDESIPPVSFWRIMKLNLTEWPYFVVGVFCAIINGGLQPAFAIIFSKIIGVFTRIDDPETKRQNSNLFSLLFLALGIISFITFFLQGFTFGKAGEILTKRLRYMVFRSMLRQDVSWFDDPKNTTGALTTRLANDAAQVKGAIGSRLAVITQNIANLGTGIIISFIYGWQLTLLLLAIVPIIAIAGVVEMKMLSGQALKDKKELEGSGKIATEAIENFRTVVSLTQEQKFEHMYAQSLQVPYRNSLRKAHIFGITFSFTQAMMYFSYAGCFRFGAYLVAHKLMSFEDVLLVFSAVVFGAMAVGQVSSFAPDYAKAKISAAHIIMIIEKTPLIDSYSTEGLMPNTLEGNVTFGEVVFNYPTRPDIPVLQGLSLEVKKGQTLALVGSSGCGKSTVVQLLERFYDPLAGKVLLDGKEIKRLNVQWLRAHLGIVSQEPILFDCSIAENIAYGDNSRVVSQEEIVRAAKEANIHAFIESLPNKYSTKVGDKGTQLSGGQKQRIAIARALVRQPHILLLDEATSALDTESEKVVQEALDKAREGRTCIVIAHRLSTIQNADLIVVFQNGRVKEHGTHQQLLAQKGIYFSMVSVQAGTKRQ

| Percentage of rhodamine 123 accumulation relative to vehicle treatment (P-gp [1]; [8]) | Percentage of rhodamine 123 accumulation relative to vehicle treatment (P-gp [1]; [9]) | More Rh123 accumulation than verapamil alone (P-gp [1]) [%] | Percentage of rhodamine 123 accumulation relative to vehicle treatment (P-gp [2]; [10]) | Effect on P-gp efflux activity when combined with verapamil (in words) (P-gp [2]) | Percentage of rhodamine 123 accumulation relative to vehicle treatment (P-gp [2]; [11]) | Decrease of Rh123 intracellular accumulation relative to vehicle control (P-gp [1]; CLA 1 μmol/L, Rh123 5 μmol/L, 2 h) [%] | Reduction of Rh123 intracellular concentration relative to verapamil treatment alone (P-gp [1]; co-treatment CLA 1 μmol/L with verapamil 200 μmol/L) [%] | Antagonism of the inhibition of verapamil to P-gp relative to verapamil treatment alone (P-gp [2]; low concentration CLA 5 μmol/L plus verapamil 200 μmol/L) [%] | Decrease of Rh123 intracellular accumulation vs. control (P-gp [2]; lower concentration, CLA 5 μmol/L, Rh123 5 μmol/L) [%] | SMILES | P-gp expression downregulated relative to vehicle control (P-gp [3]) [%] | Percentage of rhodamine 123 accumulation relative to vehicle treatment, Mean±SD, n = 3 (P-gp [4]; high dose) [%] | Percentage of rhodamine 123 accumulation relative to vehicle treatment, Mean±SD, n = 3 (P-gp [4]; low dose) [%] | AUC0–12 h [5] [µg·min/mL] | AUC0–8 h in the portal vein [6] [µg·h/mL] | Amount that entered into rat brain, comparison of enantiomers ([7]; 15 min after oral administration, P < 0.001) | P-gp expression upregulated relative to vehicle control (P-gp [3]) [%] | AUC0–∞ in target tissues (hippocampus, cortex and cerebellum), comparison of enantiomers [7] |
| --- | --- | --- | --- | --- | --- | --- | --- | --- | --- | --- | --- | --- | --- | --- | --- | --- | --- | --- |
| 63.0% and 62.97% | 28.5% and 28.51% | 24.2 | 30.0% | synergistic effect | 8.2% and 8.16% |  |  |  |  | CN1C(=O)[C@@H](O)[C@H](c2ccccc2)[C@@H]1[C@@H](O)c1ccccc1 [(−)CLA, 3S, 4R, 5R, 6S-clausenamide] | 15.9 | 50.48±17.88 | 18.90±10.22 | 1256 ± 308 | 1001 ± 487 | significantly greater than that of the (+)-isomer |  |  |
| 58.2% and 58.22% | -11.68% | 23.1 | 24.5% and 24.49% | synergistic effect | -25.92% | 11.7 | 29.3 | 35.5 | 25.9 | CN1C(=O)[C@H](O)[C@@H](c2ccccc2)[C@H]1[C@H](O)c1ccccc1 [(+)CLA, 3R,4S,5S,6R-CLA] |  | 41.28±16.86 | -19.21±7.16 | 2446 ± 540 | 2453 ± 1101 |  | 54.5 | greater values for AUC0–∞ than did (−)CLA |
